From PubChem BioAssay (NCI)
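Cultured in 96-well plates, cells were exposed to test compound for 48 hours across five concentrations. GI50 marks 50% less growth. TGI is the concentration that stops growth completely.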

Experiments:
Assay in all cases: inhibition of tumour cell growth, NCI panel, 48 h
NCI-H522 lung = test system: NCI-H522 lung
SF-539 CNS = test system: SF-539 CNS
A549 NSCLC = test system: A549 NSCLC
UO-31 renal = test system: UO-31 renal
SR leukemia = test system: SR leukemia
EKVX NSCLC = test system: EKVX NSCLC
HOP-92 NSCLC = test system: HOP-92 NSCLC
UACC-257 melanoma = test system: UACC-257 melanoma
SK-MEL-5 melanoma = test system: SK-MEL-5 melanoma
SK-MEL-2 melanoma = test system: SK-MEL-2 melanoma
DU-145 prostate = test system: DU-145 prostate
SF-268 CNS = test system: SF-268 CNS
786-0 renal = test system: 786-0 renal
MALME-3M melanoma = test system: MALME-3M melanoma
SNB-19 CNS = test system: SNB-19 CNS
OVCAR-8 ovarian = test system: OVCAR-8 ovarian
HCT-15 colon = test system: HCT-15 colon
HT29 colon = test system: HT29 colon
MDA-MB-435 = test system: MDA-MB-435
HCC-2998 colon = test system: HCC-2998 colon
COLO 205 colon = test system: COLO 205 colon
HS 578T breast = test system: HS 578T breast
UACC-62 melanoma = test system: UACC-62 melanoma
CAKI-1 renal = test system: CAKI-1 renal
SN12C renal = test system: SN12C renal
IGROV1 ovarian = test system: IGROV1 ovarian
CCRF-CEM leukemia = test system: CCRF-CEM leukemia
KM12 colon = test system: KM12 colon
M14 melanoma = test system: M14 melanoma
MCF7 breast = test system: MCF7 breast
A498 renal = test system: A498 renal
LOX IMVI melanoma = test system: LOX IMVI melanoma
SNB-75 CNS = test system: SNB-75 CNS
SW-620 colon = test system: SW-620 colon
RXF 393 renal = test system: RXF 393 renal
MOLT-4 leukemia = test system: MOLT-4 leukemia
BT-549 breast = test system: BT-549 breast
OVCAR-4 ovarian = test system: OVCAR-4 ovarian
NCI-H23 lung = test system: NCI-H23 lung
SK-OV-3 ovarian = test system: SK-OV-3 ovarian
U251 CNS = test system: U251 CNS
NCI-H460 lung = test system: NCI-H460 lung
SF-295 CNS = test system: SF-295 CNS
RPMI-8226 leukemia = test system: RPMI-8226 leukemia
PC-3 prostate = test system: PC-3 prostate
HOP-62 NSCLC = test system: HOP-62 NSCLC
MDA-MB-231 breast = test system: MDA-MB-231 breast
NCI-H226 lung = test system: NCI-H226 lung
T-47D breast = test system: T-47D breast
ACHN renal = test system: ACHN renal
HCT-116 colon = test system: HCT-116 colon
OVCAR-5 ovarian = test system: OVCAR-5 ovarian
SK-MEL-28 melanoma = test system: SK-MEL-28 melanoma
OVCAR-3 ovarian = test system: OVCAR-3 ovarian
NCI/ADR-RES ovarian = test system: NCI/ADR-RES ovarian
TK-10 renal = test system: TK-10 renal

Q: How did the GI50 (NCI-H522 lung) turn out when N#Cc1c(N)nc(NCc2ccccc2)c(C#N)c1-c1ccccc1Cl was run?
A: 12.6 µM

Q: And the TGI (NCI-H522 lung)?
A: 55 µM

Q: And the GI50 (SF-539 CNS)?
A: 17.9 µM

Q: What about the TGI (SF-539 CNS) of the same compound?
A: 40.5 µM

Q: What about the GI50 (A549 NSCLC) of the same compound?
A: 21.3 µM

Q: What about the TGI (A549 NSCLC) of the same compound?
A: > 100 µM

Q: And the GI50 (UO-31 renal)?
A: 38.1 µM

Q: And the TGI (UO-31 renal)?
A: > 100 µM

Q: And the GI50 (SR leukemia)?
A: 10.8 µM

Q: What about the TGI (SR leukemia) of the same compound?
A: 32.8 µM

Q: What about the GI50 (EKVX NSCLC) of the same compound?
A: 24.4 µM

Q: And the TGI (EKVX NSCLC)?
A: 85.3 µM

Q: What about the GI50 (HOP-92 NSCLC) of the same compound?
A: 3.57 µM

Q: What about the TGI (HOP-92 NSCLC) of the same compound?
A: 25.5 µM

Q: And the GI50 (UACC-257 melanoma)?
A: > 100 µM

Q: And the TGI (UACC-257 melanoma)?
A: > 100 µM

Q: What about the GI50 (SK-MEL-5 melanoma) of the same compound?
A: 51.3 µM

Q: What about the TGI (SK-MEL-5 melanoma) of the same compound?
A: > 100 µM

Q: And the GI50 (SK-MEL-2 melanoma)?
A: 22.9 µM

Q: What about the TGI (SK-MEL-2 melanoma) of the same compound?
A: 93.5 µM

Q: And the GI50 (DU-145 prostate)?
A: 21.5 µM

Q: What about the TGI (DU-145 prostate) of the same compound?
A: 88.6 µM

Q: And the GI50 (SF-268 CNS)?
A: 12.6 µM

Q: And the TGI (SF-268 CNS)?
A: 58.5 µM

Q: And the GI50 (786-0 renal)?
A: 13.4 µM

Q: What about the TGI (786-0 renal) of the same compound?
A: 36.2 µM

Q: And the GI50 (MALME-3M melanoma)?
A: 21 µM

Q: And the TGI (MALME-3M melanoma)?
A: 90.2 µM

Q: What about the GI50 (SNB-19 CNS) of the same compound?
A: 23.4 µM

Q: And the TGI (SNB-19 CNS)?
A: > 100 µM

Q: And the GI50 (OVCAR-8 ovarian)?
A: 11.4 µM

Q: What about the TGI (OVCAR-8 ovarian) of the same compound?
A: > 100 µM

Q: And the GI50 (HCT-15 colon)?
A: > 100 µM

Q: What about the TGI (HCT-15 colon) of the same compound?
A: > 100 µM

Q: And the GI50 (HT29 colon)?
A: 73.4 µM

Q: And the TGI (HT29 colon)?
A: > 100 µM

Q: And the GI50 (MDA-MB-435)?
A: 21.8 µM

Q: And the TGI (MDA-MB-435)?
A: > 100 µM

Q: And the GI50 (HCC-2998 colon)?
A: > 100 µM

Q: And the TGI (HCC-2998 colon)?
A: > 100 µM

Q: And the GI50 (COLO 205 colon)?
A: 74 µM

Q: And the TGI (COLO 205 colon)?
A: > 100 µM

Q: What about the GI50 (HS 578T breast) of the same compound?
A: 11.3 µM

Q: What about the TGI (HS 578T breast) of the same compound?
A: 43 µM

Q: What about the GI50 (UACC-62 melanoma) of the same compound?
A: 12.4 µM

Q: What about the TGI (UACC-62 melanoma) of the same compound?
A: 60.2 µM

Q: What about the GI50 (CAKI-1 renal) of the same compound?
A: 14.6 µM

Q: What about the TGI (CAKI-1 renal) of the same compound?
A: > 100 µM

Q: What about the GI50 (SN12C renal) of the same compound?
A: 4.53 µM

Q: And the TGI (SN12C renal)?
A: 25.1 µM

Q: And the GI50 (IGROV1 ovarian)?
A: 5.08 µM

Q: And the TGI (IGROV1 ovarian)?
A: 41.1 µM

Q: What about the GI50 (CCRF-CEM leukemia) of the same compound?
A: 15.2 µM

Q: What about the TGI (CCRF-CEM leukemia) of the same compound?
A: 45.5 µM

Q: What about the GI50 (KM12 colon) of the same compound?
A: 47 µM

Q: And the TGI (KM12 colon)?
A: > 100 µM

Q: What about the GI50 (M14 melanoma) of the same compound?
A: 23.2 µM

Q: What about the TGI (M14 melanoma) of the same compound?
A: > 100 µM

Q: And the GI50 (MCF7 breast)?
A: 20 µM

Q: What about the TGI (MCF7 breast) of the same compound?
A: > 100 µM

Q: What about the GI50 (A498 renal) of the same compound?
A: 19.2 µM

Q: What about the TGI (A498 renal) of the same compound?
A: 46.9 µM

Q: What about the GI50 (LOX IMVI melanoma) of the same compound?
A: 4.75 µM

Q: And the TGI (LOX IMVI melanoma)?
A: 35.9 µM

Q: What about the GI50 (SNB-75 CNS) of the same compound?
A: 10.3 µM

Q: What about the TGI (SNB-75 CNS) of the same compound?
A: 48.8 µM

Q: What about the GI50 (SW-620 colon) of the same compound?
A: 18.9 µM

Q: What about the TGI (SW-620 colon) of the same compound?
A: > 100 µM

Q: What about the GI50 (RXF 393 renal) of the same compound?
A: 24.6 µM

Q: And the TGI (RXF 393 renal)?
A: > 100 µM

Q: And the GI50 (MOLT-4 leukemia)?
A: 26.8 µM

Q: What about the TGI (MOLT-4 leukemia) of the same compound?
A: > 100 µM

Q: What about the GI50 (BT-549 breast) of the same compound?
A: 16.7 µM

Q: And the TGI (BT-549 breast)?
A: 53.9 µM

Q: What about the GI50 (OVCAR-4 ovarian) of the same compound?
A: 5.04 µM

Q: What about the TGI (OVCAR-4 ovarian) of the same compound?
A: 45.3 µM

Q: And the GI50 (NCI-H23 lung)?
A: 17.5 µM

Q: What about the TGI (NCI-H23 lung) of the same compound?
A: > 100 µM

Q: What about the GI50 (SK-OV-3 ovarian) of the same compound?
A: 62.7 µM

Q: And the TGI (SK-OV-3 ovarian)?
A: > 100 µM

Q: What about the GI50 (U251 CNS) of the same compound?
A: 2.46 µM

Q: What about the TGI (U251 CNS) of the same compound?
A: 10.3 µM

Q: What about the GI50 (NCI-H460 lung) of the same compound?
A: 4.99 µM

Q: What about the TGI (NCI-H460 lung) of the same compound?
A: 30.1 µM

Q: And the GI50 (SF-295 CNS)?
A: 12.6 µM

Q: And the TGI (SF-295 CNS)?
A: 76.2 µM

Q: What about the GI50 (RPMI-8226 leukemia) of the same compound?
A: 48.6 µM

Q: And the TGI (RPMI-8226 leukemia)?
A: > 100 µM

Q: And the GI50 (PC-3 prostate)?
A: 12 µM

Q: And the TGI (PC-3 prostate)?
A: > 100 µM

Q: What about the GI50 (HOP-62 NSCLC) of the same compound?
A: 4.47 µM

Q: What about the TGI (HOP-62 NSCLC) of the same compound?
A: 18 µM

Q: What about the GI50 (MDA-MB-231 breast) of the same compound?
A: 5.76 µM

Q: And the TGI (MDA-MB-231 breast)?
A: 33.8 µM

Q: What about the GI50 (NCI-H226 lung) of the same compound?
A: 2.39 µM

Q: And the TGI (NCI-H226 lung)?
A: 14.5 µM

Q: And the GI50 (T-47D breast)?
A: 67.3 µM

Q: What about the TGI (T-47D breast) of the same compound?
A: > 100 µM

Q: And the GI50 (ACHN renal)?
A: 5.73 µM

Q: What about the TGI (ACHN renal) of the same compound?
A: 62.7 µM

Q: What about the GI50 (HCT-116 colon) of the same compound?
A: 16.3 µM

Q: And the TGI (HCT-116 colon)?
A: > 100 µM

Q: What about the GI50 (OVCAR-5 ovarian) of the same compound?
A: 26.8 µM

Q: What about the TGI (OVCAR-5 ovarian) of the same compound?
A: > 100 µM

Q: What about the GI50 (SK-MEL-28 melanoma) of the same compound?
A: 49.5 µM

Q: What about the TGI (SK-MEL-28 melanoma) of the same compound?
A: > 100 µM

Q: And the GI50 (OVCAR-3 ovarian)?
A: 18.4 µM

Q: And the TGI (OVCAR-3 ovarian)?
A: 49.7 µM

Q: And the GI50 (NCI/ADR-RES ovarian)?
A: 37.1 µM

Q: And the TGI (NCI/ADR-RES ovarian)?
A: > 100 µM

Q: And the GI50 (TK-10 renal)?
A: 22.3 µM

Q: What about the TGI (TK-10 renal) of the same compound?
A: 66 µM
